Source: US12371404B2, “Fused bicyclic alkylene linked imidodicarbonimidic diamides, methods for synthesis, and uses in therapy” (NovaTarg, Inc., priority 2016, dated 2025)
Structures can show the parent of a compound that is named as a salt.

Key:
human MATE1 = molecular target: T1, human MATE1 (Homo sapiens, UniProt Q96FL8); experiment: Oxygen consumption rate (OCR) assay, HEK293 cells transfected with MATE1; details: for inhibition at 1000 µM: HEK293, read-out: Oxygen Consumption Rate (OCR), MATE 1, % Inhibition at 1000 μM test concentration
T1 sequence (Q96FL8 1-570): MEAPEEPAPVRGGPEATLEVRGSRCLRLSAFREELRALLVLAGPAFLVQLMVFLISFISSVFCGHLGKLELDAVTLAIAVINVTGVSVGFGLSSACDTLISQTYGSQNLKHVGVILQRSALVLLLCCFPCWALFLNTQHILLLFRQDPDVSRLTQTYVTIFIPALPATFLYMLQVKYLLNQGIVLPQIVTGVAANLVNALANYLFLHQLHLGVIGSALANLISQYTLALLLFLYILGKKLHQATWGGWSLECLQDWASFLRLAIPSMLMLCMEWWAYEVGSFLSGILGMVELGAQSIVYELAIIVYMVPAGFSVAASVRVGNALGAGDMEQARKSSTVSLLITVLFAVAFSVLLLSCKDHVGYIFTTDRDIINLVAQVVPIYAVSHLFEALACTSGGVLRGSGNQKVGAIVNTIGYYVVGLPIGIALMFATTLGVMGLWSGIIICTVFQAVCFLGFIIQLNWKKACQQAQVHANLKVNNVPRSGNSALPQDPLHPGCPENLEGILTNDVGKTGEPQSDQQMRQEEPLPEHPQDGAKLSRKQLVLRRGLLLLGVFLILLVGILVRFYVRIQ
Description: The compounds of the present invention are similarly tested in an oxygen consumption rate (OCR) assay to evaluate the functional activity of test compounds in cells.
(§1) In brief, the assay uses HEK293 cells stably transfected with the human OCT1, OCT2, OCT3, PMAT, or MATE1 transporters to determine a compound's relative transporter selectivity and its effect on the rate of oxygen consumption relative to control (Neo) cells. The MitoXpress Xtra oxygen-sensitive fluorophore is used to monitor oxygen consumption rates in the presence and absence of compound treatments. The analogs were tested at eight (8) different concentrations in triplicate to determine a relative IC50 value.
(§2) A summary description of the protocol is as follows:
(§3) Cells were incubated overnight to allow attachment. The outer columns (1 and 12) are not seeded with cells, as controls. The next day, plating medium was removed and replaced with 150 μL of assay medium (DMEM/F12 (PRF), 5% FBS, antibiotics) containing compound dilutions. A 3-fold serial dilution was prepared in the assay medium and transferred to the empty wells. The outer columns and column 11 received 150 μL of assay medium only. 10 μL of MitoXpress Xtra reagent was added to each test well, and 100 μL of pre-warmed mineral oil was overlayed in each well to create a seal. Dual read time-resolved fluorescence (BMG FluoStar Galaxy reader) was measured over 2 hours with measurements taken every 2 minutes. Excitation is 340 nm, Emission is 650 nm. For lifetime analysis, two measurements per well were taken: 1) delay of 30 μs, with a window of 30 μs; and 2) delay of 70 μs with a window of 30 μs. Background TRF values from A1-D1 were subtracted from all readings. A ratiometric analysis was performed to determine changes in the Lifetime fluorescence signal:Lifetime (μs) [T]=(D2−D1)/ln(W1/W2), where D is delay; W is fluorescence window value at each time point. Lifetime slopes were calculated using each Lifetime measurement over time. IC50 values were determined by plotting lifetime slope values vs. compound concentration.

control (Neo) cells = experiment: Oxygen consumption rate (OCR) assay, control (Neo) HEK293 cells; format: cell-based; details: Homo sapiens; control (Neo) HEK293 cells; MitoXpress Xtra, 2 hours; read-out: Oxygen Consumption Rate (OCR) IC50, Neo
Description: Diabetologia 2011, 54 (12): 3101-3110, each incorporated by reference with regard to such testing. The compounds of the present invention are similarly tested in an oxygen consumption rate (OCR) assay to evaluate the functional activity of test compounds in cells.
as §1, §2
as §3, with “HEK293 cells transformed with human organic cation transporters were plated in collagen coated, 96-well black-walled microclear plates (Greiner-Bio 1, #655956) at 60,000 cells per well in growth medium (DMEM (LG), 10% FBS, 400 μg/ml G418). Cells” for “Cells”

SMILES	inhibition at 1000 µM (human MATE1)	IC50 (control (Neo) cells)	IC50 (human MATE1)
CCOc1ccc2[nH]cc(CCNC(=N)NC(=N)N)c2c1 [Ex 12, 1-[2-(5-ethoxy-1H-indol-3-yl)ethyl]imidodicarbonimide diamide trifluoroacetic acid salt]	-8%	1150 µM	–
N=C(N)NC(=N)NCCc1cn(CCO)c2ccccc12 [Ex 13, 1-[2-(1-(2-hydroxyethyl)-1H-indol-3-yl)ethyl]imidodicarbonimide diamide trifluoroacetic acid salt]	22%	2520 µM	–
COc1cccc2[nH]cc(CCNC(=N)NC(=N)N)c12 [Ex 14, 1-[2-(4-methoxy-1H-indol-3-yl)ethyl]imidodicarbonimide diamide trifluoroacetic acid salt]	39%	1310 µM	–
N=C(N)NC(=N)NCCc1c[nH]c2ccc(OCCO)cc12 [Ex 15, 1-(2-(5-(2-hydroxyethoxy)-1H-indol-3-yl)ethyl)imidodicarbonimide diamide trifluoroacetic acid salt]	-17%	> 10000 µM	–
COc1ccc2[nH]c(C)c(CCNC(=N)NC(=N)N)c2c1 [Ex 19, 1-[2-(5-methoxy-2-methyl-1H-indol-3-yl)ethyl]imidodicarbonimide diamide, trifluoroacetic acid salt]	14%	> 3000 µM	–
N=C(N)NC(=N)NCCc1c[nH]c2ncccc12 [Ex 20, 1-(2-(1H-pyrrolo[2,3-b]pyridin-3-yl)ethyl)imidodicarbonimide diamide hydrochloride]	–	605 µM	–
CN(C)C(=N)NC(=N)NCCc1c[nH]c2ccc(F)cc12 [Ex 24, 3-(2-(5-fluoro-1H-indol-3-yl)ethyl)-1,1-dimethyl imidodicarbonimide diamide hydrochloride]	–	1590 µM	> 10000 µM
N=C(N)NC(=N)NCCc1c[nH]c2ccc(C(F)(F)F)cc12 [Ex 25, 1-[2-(5-trifluoromethyl-1H-indol-3-yl)ethyl]imidodicarbonimide diamide, trifluoroacetic acid salt]	44%	51 µM	–
N=C(N)NC(=N)NCCc1c[nH]c2c(F)cc(F)cc12 [Ex 27, 1-[2-(5,7-difluoro-1H-indol-3-yl)ethyl]imidodicarbonimide diamide, trifluoroacetic acid salt]	–	291 µM	–
N=C(N)NC(=N)NCCc1c[nH]c2cc(F)c(F)cc12 [Ex 28, 1-[2-(5,6-difluoro-1H-indol-3-yl)ethyl]imidodicarbonimide diamide, trifluoroacetic acid salt]	–	604 µM	–
Cc1[nH]c2ccc(F)cc2c1CCNC(=N)NC(=N)N [Ex 29, 1-[2-(5-fluoro-2-methyl-1H-indol-3-yl)ethyl]imidodicarbonimide diamide, trifluoroacetic acid salt]	–	> 100 µM	–
CN(C)C(=N)NC(=N)NCCc1c[nH]c2ncccc12 [Ex 30, 1-(2-(1H-pyrrolo[2,3-b]pyridin-3-yl)ethyl)-1,1-dimethyl imidodicarbonimide diamide trifluoroacetic acid salt]	–	864 µM	–
CN(C)C(=N)NC(=N)NCCc1c[nH]c2ccc(OC(F)(F)F)cc12 [Ex 33, 3-(2-(5-trifluoromethoxy-1H-indol-3-yl)ethyl)-1,1-dimethyl imidodicarbonimide diamide hydrochloride]	–	156 µM	218 µM
Cc1cc2c(CCNC(=N)NC(=N)N)c[nH]c2cc1F [Ex 37, 1-[2-(6-fluoro-5-methyl-1H-indol-3-yl)ethyl]imidodicarbonimide diamide, trifluoroacetic acid salt]	–	326 µM	70 µM
N=C(N)NC(=N)NCCc1c[nH]c2c(Cl)cc(F)cc12 [Ex 38, 1-[2-(7-chloro-5-fluoro-1H-indol-3-yl)ethyl]imidodicarbonimide diamide, trifluoroacetic acid salt]	–	8760 µM	2050 µM
Cn1cc(CCNC(=N)NC(=N)N)c2cccnc21 [Ex 39, 1-(2-(1-methyl-1H-pyrrolo[2,3-b]pyridin-3-yl)ethyl)imidodicarbonimide diamide, trifluoroacetic acid salt]	–	205 µM	168 µM
N=C(N)NC(=N)NCCc1c[nH]c2ncc(Cl)cc12 [Ex 40, 1-(2-(5-chloro-1H-pyrrolo[2,3-b]pyridin-3-yl)ethyl)imidodicarbonimide diamide, trifluoroacetic acid salt]	–	> 1000 µM	1470 µM
Cc1[nH]c2ncccc2c1CCNC(=N)NC(=N)N [Ex 44, 1-(2-(2-methyl-1H-pyrrolo[2,3-b]pyridin-3-yl)ethyl)imidodicarbonimide diamide, trifluoroacetic acid salt]	–	1660 µM	474 µM
N=C(N)NC(=N)NCCc1c[nH]c2nccc(Cl)c12 [Ex 46, 1-(2-(4-chloro-1H-pyrrolo[2,3-b]pyridin-3-yl)ethyl)imidodicarbonimide diamide, trifluoroacetic acid salt]	–	2640 µM	335 µM
N=C(N)NC(=N)NCCc1c[nH]c2ccc(F)c(Cl)c12 [Ex 47, 1-[2-(4-chloro-5-fluoro-1H-indol-3-yl)ethyl]imidodicarbonimide diamide, trifluoroacetic acid salt]	–	101 µM	22 µM
N=C(N)NC(=N)NCCc1c[nH]c2ccc(Cl)c(F)c12 [Ex 49, 1-[2-(5-chloro-4-fluoro-1H-indol-3-yl)ethyl]imidodicarbonimide diamide, trifluoroacetic acid salt]	–	155 µM	64 µM
N=C(N)NC(=N)NCCc1c[nH]c2cc(F)c(F)c(F)c12 [Ex 50, 1-[2-(4,5,6-trifluoro-1H-indol-3-yl)ethyl]imidodicarbonimide diamide, trifluoroacetic acid salt]	–	181 µM	102 µM
N=C(N)NC(=N)NCCc1c[nH]c2c(F)c(Cl)ccc12 [Ex 51, 1-[2-(6-chloro-7-fluoro-1H-indol-3-yl)ethyl]imidodicarbonimide diamide, trifluoroacetic acid salt]	–	542 µM	597 µM
Cn1cc(CCNC(=N)NC(=N)N)c2ccc(F)cc21 [Ex 52, 1-[2-(6-fluoro-1-methyl-1H-indol-3-yl)ethyl]imidodicarbonimide diamide, trifluoroacetic acid salt]	–	388 µM	32 µM
CN(C)C(=N)NC(=N)NCCc1c[nH]c2ccc(Cl)cc12 [Ex 53, 3-(2-(5-chloro-1H-indol-3-yl)ethyl)-1,1-dimethyl imidodicarbonimide diamide trifluoroacetic acid salt]	–	422 µM	398 µM
